Results from patent publication US9802927B2, “Oxadiazine compounds and methods of use thereof” (Denali Therapeutics, Inc., priority 2015, dated 2017).

test system: Aβ42; assay: In vitro cell screening assay in H4 cells expressing human APP751: Aβ42 by sandwich ELISA; type: cell-based; settings: Homo sapiens, compounds 0.003-10 μM, incubated overnight (16-18 h), sandwich ELISA of supernatant
Protocol: Human neuroglioma H4 cells were transfected with a pcDNA3.1 plasmid expressing human wild type APP751 cDNA and a stable cell line was generated using G418 selection. Cells were plated at 15,000 cells/well in Costar 96-well plates and placed at 37° C. and 5% CO2. Six hours after plating, cells were washed three times with Pro293™ chemically defined medium, followed by addition of compounds (0.003-10 μM, final DMSO concentration of 0.33%). Plates were incubated overnight (16-18 h) and supernatant was removed for quantification of Aβ peptides by sandwich ELISA. Cytotoxicity was evaluated using Cell-Titer 96W AQueous One Solution Cell Proliferation Assay according to the manufacturer's protocol.
Aβ peptide levels were quantified by sandwich ELISA. 96-well plates were coated with C-terminal specific Aβ antibodies recognizing either Aβ37, Aβ38, Aβ40, Aβ42, Aβ43 or a N-terminal specific Aβ antibody to detect Aβ 1-x. Plates were then blocked overnight at 4° C. with 1% bovine serum albumin (BSA) in PBS-T. Plates were washed and 100 μl of cultured cell supernatant or synthetic Aβ peptide standards and a detection antibody (4G8-HRP) were applied to the blocked plate and incubated overnight at 4° C. The next day, wells were washed before the addition of detection substrate (TMB peroxidase). Plates were then read for absorbance at 450 nm on a Molecular Devices SpectraMax M5e Microplate Reader.
Compound-treated samples were normalized to samples treated with DMSO alone (no inhibition) and to samples treated with DAPT. EC50 values were calculated from values reported as percent of DMSO controls using nonlinear regression, based on a sigmoidal dose response (variable slope) model. GraphPAD software from Prism used for calculation.

SMILES | EC50 [nM]
COc1nc(C2=NOCC(c3cn(C)c4cccc(C#N)c34)N2)ccc1-n1cnc(C)c1 (single isomer, unassigned; (+)) [Example 247A, (+)-3-(3-(6-methoxy-5-(4-methyl-1H-imidazol-1-yl)pyridin-2-yl)-5,6-dihydro-4H-1,2,4-oxadiazin-5-yl)-1-methyl-1H-indole-4-carbonitrile] | 47.1
COc1nc(C2=NOCC(C3CCOCC3)N2)ccc1-n1cnc(C)c1 (single isomer, unassigned; (-)) [Example 143A, (−)-3-(6-methoxy-5-(4-methyl-1H-imidazol-1-yl)pyridin-2-yl)-5-(tetrahydro-2H-pyran-4-yl)-5,6-dihydro-4H-1,2,4-oxadiazine] | > 3000
COc1nc(C2=NOCC(c3ccccn3)N2)ccc1-n1cnc(C)c1 (single isomer, unassigned; (+)) [Example 168A, (+)-3-(6-methoxy-5-(4-methyl-1H-imidazol-1-yl)pyridin-2-yl)-5-(pyridin-2-yl)-5,6-dihydro-4H-1,2,4-oxadiazine] | > 3000
COc1nc(C2=NOC[C@H](c3cc4cc(C)ccc4o3)N2)ccc1-n1cnc(C)c1 [Example 10, (R)-3-(6-Methoxy-5-(4-methyl-1H-imidazol-1-yl)pyridin-2-yl)-5-(5-methylbenzofuran-2-yl)-5,6-dihydro-4H-1,2,4-oxadiazine] | 16

same assay, conditions: compounds 0.003-10 μM, incubated overnight (16-18 h), sandwich ELISA of supernatant

SMILES | EC50 [nM]
COc1nc(C2=NOCC(c3cnc4ccc(Cl)cn34)N2)ccc1-n1cnc(C)c1 (single isomer, unassigned; (-)) [Example 269A, (−)-5-(6-chloroimidazo[1,2-a]pyridin-3-yl)-3-(6-methoxy-5-(4-methyl-1H-imidazol-1-yl)pyridin-2-yl)-5,6-dihydro-4H-1,2,4-oxadiazine] | > 3000
COc1nc(C2=NOCC(c3cn(C)c4ccc(Cl)c(F)c34)N2)ccc1-n1cnc(C)c1 (single isomer, unassigned; (-)) [Example 237B, (−)-5-(5-chloro-4-fluoro-1-methyl-1H-indol-3-yl)-3-(6-methoxy-5-(4-methyl-1H-imidazol-1-yl)pyridin-2-yl)-5,6-dihydro-4H-1,2,4-oxadiazine] | 47.1
COc1nc(C2=NOCC(c3ccc(Cl)c(F)c3)N2)ccc1-n1cnc(C)c1 (single isomer, unassigned; (-)) [Example 106A, (−)-5-(4-chloro-3-fluorophenyl)-3-(6-methoxy-5-(4-methyl-1H-imidazol-1-yl)pyridin-2-yl)-5,6-dihydro-4H-1,2,4-oxadiazine] | > 3000
COc1nc(C2=NOCC(c3cc4ccc(C5CC5)cc4o3)N2)ccc1-n1cnc(C)c1 (single isomer, unassigned; (-)) [Example 236A, (−)-5-(6-cyclopropylbenzofuran-2-yl)-3-(6-methoxy-5-(4-methyl-1H-imidazol-1-yl)pyridin-2-yl)-5,6-dihydro-4H-1,2,4-oxadiazine] | 397
COc1nc(C2=NOCC(C3CC3)N2)ccc1-n1cnc(C)c1 (single isomer, unassigned) [Example 134B, 5-cyclopropyl-3-(6-methoxy-5-(4-methyl-1H-imidazol-1-yl)pyridin-2-yl)-5,6-dihydro-4H-1,2,4-oxadiazine] | 1100
COc1nc(C2=NOCC(c3cn(C)c4cc(F)c(F)cc34)N2)ccc1-n1cnc(C)c1 (single isomer, unassigned; (+)) [Example 223B, (+)-5-(5,6-difluoro-1-methyl-1H-indol-3-yl)-3-(6-methoxy-5-(4-methyl-1H-imidazol-1-yl)pyridin-2-yl)-5,6-dihydro-4H-1,2,4-oxadiazine] | 6.2
COc1nc(C2=NOCC(c3cn(C)c4c(F)cccc34)N2)ccc1-n1cnc(C)c1 (single isomer, unassigned; (+)) [Example 231B, (+)-5-(7-fluoro-1-methyl-1H-indol-3-yl)-3-(6-methoxy-5-(4-methyl-1H-imidazol-1-yl)pyridin-2-yl)-5,6-dihydro-4H-1,2,4-oxadiazine] | 10.8
COc1nc(C2=NOCC(C3CCCC3)N2)ccc1-n1cnc(C)c1 (single isomer, unassigned; (+)) [Example 171A, (+)-5-cyclopentyl-3-(6-methoxy-5-(4-methyl-1H-imidazol-1-yl)pyridin-2-yl)-5,6-dihydro-4H-1,2,4-oxadiazine] | 918
COc1nc(C2=NOCC(c3cc4cccc(Cl)c4o3)N2)ccc1-n1cnc(C)c1 (single isomer, unassigned; (-)) [Example 64A, (−)-5-(7-chlorobenzofuran-2-yl)-3-(6-methoxy-5-(4-methyl-1H-imidazol-1-yl)pyridin-2-yl)-5,6-dihydro-4H-1,2,4-oxadiazine] | 759
COc1nc(C2=NOCC(c3cn(C)c4ccc(F)c(F)c34)N2)ccc1-n1cnc(C)c1 (single isomer, unassigned; (-)) [Example 220A, (−)-5-(4,5-difluoro-1-methyl-1H-indol-3-yl)-3-(6-methoxy-5-(4-methyl-1H-imidazol-1-yl)pyridin-2-yl)-5,6-dihydro-4H-1,2,4-oxadiazine] | 102
CCC1CON=C(c2ccc(-n3cnc(C)c3)c(OC)n2)N1 (single isomer, unassigned) [Example 133B, 5-ethyl-3-(6-methoxy-5-(4-methyl-1H-imidazol-1-yl)pyridin-2-yl)-5,6-dihydro-4H-1,2,4-oxadiazine] | 728
COc1ccc2c(C3CON=C(c4ccc(-n5cnc(C)c5)c(OC)n4)N3)cn(C)c2c1 (single isomer, unassigned; (-)) [Example 258A, (−)-5-(6-methoxy-1-methyl-1H-indol-3-yl)-3-(6-methoxy-5-(4-methyl-1H-imidazol-1-yl)pyridin-2-yl)-5,6-dihydro-4H-1,2,4-oxadiazine] | 154
COc1nc(C2=NOCC(c3ccc4c(c3)OC(F)(F)O4)N2)ccc1-n1cnc(C)c1 (single isomer, unassigned; (+)) [Example 225B] | 14
COc1nc(C2=NOCC(c3cn(C)c4ccc(Cl)cc34)N2)ccc1-n1cnc(C)c1 (single isomer, unassigned; (+)) [Example 193B, (+)-5-(5-chloro-1-methyl-1H-indol-3-yl)-3-(6-methoxy-5-(4-methyl-1H-imidazol-1-yl)pyridin-2-yl)-5,6-dihydro-4H-1,2,4-oxadiazine] | 4.9
COc1nc(C2=NOCC(c3cn(C)c4cc(F)ccc34)N2)ccc1-n1cnc(C)c1 (single isomer, unassigned; (-)) [Example 192A, (−)-5-(6-fluoro-1-methyl-1H-indol-3-yl)-3-(6-methoxy-5-(4-methyl-1H-imidazol-1-yl)pyridin-2-yl)-5,6-dihydro-4H-1,2,4-oxadiazine] | 170
COc1nc(C2=NOCC(c3cccc(OC(F)(F)F)c3)N2)ccc1-n1cnc(C)c1 (single isomer, unassigned; (+)) [Example 242B, (+)-3-(6-methoxy-5-(4-methyl-1H-imidazol-1-yl)pyridin-2-yl)-5-(3-(trifluoromethoxy)phenyl)-5,6-dihydro-4H-1,2,4-oxadiazine] | 18.5
COc1nc(C2=NOCC(c3cc4ccc(F)cc4o3)N2)ccc1-n1cnc(C)c1 (single isomer, unassigned; (-)) [Example 52A, (−)-5-(6-fluorobenzofuran-2-yl)-3-(6-methoxy-5-(4-methyl-1H-imidazol-1-yl)pyridin-2-yl)-5,6-dihydro-4H-1,2,4-oxadiazine] | 667
COc1nc(C2=NOCC(c3oc4ccccc4c3C)N2)ccc1-n1cnc(C)c1 (single isomer, unassigned; (-)) [Example 16A, (−)-3-(6-methoxy-5-(4-methyl-1H-imidazol-1-yl)pyridin-2-yl)-5-(3-methylbenzofuran-2-yl)-5,6-dihydro-4H-1,2,4-oxadiazine] | 508
COc1nc(C2=NOCC(c3cn(C)c4cc(F)c(Cl)cc34)N2)ccc1-n1cnc(C)c1 (single isomer, unassigned; (+)) [Example 216B, (+)-5-(5-chloro-6-fluoro-1-methyl-1H-indol-3-yl)-3-(6-methoxy-5-(4-methyl-1H-imidazol-1-yl)pyridin-2-yl)-5,6-dihydro-4H-1,2,4-oxadiazine] | 4.2
COc1nc(C2=NOCC(c3cn(C)c4cccc(C(F)(F)F)c34)N2)ccc1-n1cnc(C)c1 (single isomer, unassigned; (+)) [Example 230A, (+)-3-(6-methoxy-5-(4-methyl-1H-imidazol-1-yl)pyridin-2-yl)-5-(1-methyl-4-(trifluoromethyl)-1H-indol-3-yl)-5,6-dihydro-4H-1,2,4-oxadiazine] | 105
COc1nc(C2=NOCC(c3ccc(OC(F)(F)F)cc3)N2)ccc1-n1cnc(C)c1 (single isomer, unassigned; (-)) [Example 70A, (−)-3-(6-methoxy-5-(4-methyl-1H-imidazol-1-yl)pyridin-2-yl)-5-(4-(trifluoromethoxy)phenyl)-5,6-dihydro-4H-1,2,4-oxadiazine] | > 3000
COc1nc(C2=NOCC(c3nc4ccccc4o3)N2)ccc1-n1cnc(C)c1 (single isomer, unassigned; (+)) [Example 203B, (+)-2-(3-(6-methoxy-5-(4-methyl-1H-imidazol-1-yl)pyridin-2-yl)-5,6-dihydro-4H-1,2,4-oxadiazin-5-yl)benzo[d]oxazole] | 256
